Measurements reported in patent publication US20160213733A1, “CHARACTERIZATION OF RICE” (Phytoquest Limited, priority 2013, published 2016).

Tests used:
[1] = tested on: digestive enzymes of rat intestinal acetone powder extract; experiment: Rat digestive enzyme assays, all activities measured; format: biochemical
Description: (§1) Rat intestinal acetone powder extract was purchased from Sigma (11630 lot SLBB6071V) to give results more closely related to digestion. 100 mg of the acetone powder was mixed with 1 ml cold PBS homogenised, sonicated briefly and then spun at 12K rpm for 3 mins.

[2] = tested on: alpha-glucosidase activity of rat intestinal acetone powder extract; experiment: Rat digestive enzyme assay, PNP α-D-glucoside substrate; format: biochemical
Description: as §1

[3] = in vivo; cited from earlier work
rodent pancreatic cell = rodent pancreatic cell studies; cited from earlier work

inhibition of the alpha-glucosidase activity (in words) [2] | Structure (SMILES) | inhibition of the digestive enzymes / activities measured (in words) [1] | effective dose against health risks of excessive intake of fast-digestible carbohydrates [3] | postprandial blood glucose (in words) [3] | glucose induced-insulin secretion (in words) (rodent pancreatic cell)
– | OC[C@H]1NCC[C@H](O)[C@H]1O [3,4-diepi fagomine, 3,4-diepifagomine] | inhibited none of the activities measured | – | – | –
– | OC[C@H]1NCC[C@H](O)[C@@H]1O [3-epifagomine] | inhibited none of the activities measured | – | – | –
inhibited | OC[C@H]1NCC[C@@H](O)[C@@H]1O [fagomine, 1,2-dideoxynojirimycin] | – | 1 mg/kg | lowers postprandial blood glucose | potentiate glucose induced-insulin secretion
